Measurements from patent US10597388B2, “Pyridazinone herbicides” (FMC CORPORATION, priority 2014, dated 2020).

Experiments:
Format in all cases: in vivo
[1] = system: barnyardgrass (Echinochloa crus-galli); experiment: Test A greenhouse herbicide test, pre- and postemergence
In short: (§1)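 Seeds sown in loam–sand blend got a preemergence directed soil spray of compound in non-phytotoxic solvent with surfactant. Postemergence treatment was given at 2–10 cm, one- to two-leaf stage. After ~10 d in greenhouse, injury was rated visually vs untreated controls, 0 (no effect) to 100 (complete control).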

corn (Zea mays) = experiment: as above; settings: Postemergence; for Corn plant response rating: 0 to 100 scale, 0 is no effect, 100 is complete control
In short: as §1

[2] = system: foxtail, giant (giant foxtail, Setaria faberii); experiment: as above
In short: as §1

kochia (Kochia scoparia) = experiment: as above
In short: as §1

[3] = system: pigweed (Amaranthus retroflexus); experiment: as above
In short: as §1

[4] = system: ragweed (common ragweed, Ambrosia elatior); experiment: as above
In short: as §1

[5] = system: ryegrass, Italian (Italian ryegrass, Lolium multiflorum); experiment: as above
In short: as §1

[6] = system: wheat (Triticum aestivum); experiment: as above; settings: Postemergence; for Wheat plant response rating: 0 to 100 scale, 0 is no effect, 100 is complete control
In short: as §1

[7] = system: barnyardgrass (Echinochloa crus-galli); experiment: Test C greenhouse herbicide test, pre- and postemergence
In short: (§2)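 Two application timings: at sowing into a soil/sand blend, and on 2–18 cm seedlings in peat-vermiculite potting mix. A non-phytotoxic, surfactant-containing solvent carried the compounds. Plants were compared with controls and rated visually on 0–100 after 13–15 d.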

[8] = system: galium (catchweed bedstraw, Galium aparine); experiment: as above
In short: as §2

[9] = system: velvetleaf (Abutilon theophrasti); experiment: as above
In short: as §2

[10] = Postemergence, 125 g ai/ha, 0 to 100 scale where 0 is no effect and 100 is complete control
[11] = Postemergence, 500 g ai/ha, 0 to 100 scale, 0 is no effect, 100 is complete control
[12] = Preemergence, 125 g ai/ha, 0 to 100 scale where 0 is no effect and 100 is complete control
[13] = Preemergence, 500 g ai/ha, 0 to 100 scale where 0 is no effect and 100 is complete control
[14] = 125 g ai/ha, 0 to 100 scale where 0 is no effect and 100 is complete control
[15] = Postemergence, 31 g ai/ha, 0 to 100 scale (0 no effect, 100 complete control)
[16] = Postemergence, 125 g ai/ha, scale 0 to 100, 0 is no effect, 100 is complete control
[17] = Postemergence, 250 g ai/ha, scale 0 to 100, 0 no effect, 100 complete control, 13 to 15 d
[18] = Preemergence, 31 g ai/ha, scale 0 to 100, 0 is no effect, 100 is complete control
[19] = Preemergence, 62 g ai/ha, scale 0 to 100, 0 is no effect, 100 is complete control
[20] = Preemergence, 125 g ai/ha, scale 0 to 100, 0 is no effect, 100 is complete control
[21] = Preemergence, 250 g ai/ha, scale 0 to 100 (0 no effect, 100 complete control)
[22] = postemergence, 62 g ai/ha, scale 0 to 100, 0 no effect, 100 complete control
[23] = Postemergence, 125 g ai/ha, visual rating after approx. 10 d, 0 to 100 scale (0 no effect, 100 complete control)
[24] = Preemergence, 500 g ai/ha, 0 to 100 scale, 0 no effect, 100 complete control
[25] = Postemergence, 500 g ai/ha, visual rating after approx. 10 d, 0 to 100 scale (0 no effect, 100 complete control)
[26] = 500 g ai/ha, visual rating after approx. 10 d, 0 to 100 scale (0 no effect, 100 complete control)
[27] = Postemergence, 31 g ai/ha, scale 0 to 100 (0 no effect, 100 complete control)
[28] = Postemergence, 62 g ai/ha, 0 to 100 scale (0 no effect, 100 complete control)
[29] = postemergence, 125 g ai/ha, scale 0 to 100, 0 no effect, 100 complete control

## CCOC(=O)Oc1c(C)nn(C)c(=O)c1-c1c(C)sc2c(C)cc(C)cc12 [Compound 83]
[1]; [10]
  Plant response rating, Barnyardgrass: 40
[1]; [11]
  Barnyardgrass plant response rating: 90
[1]; [12]
  Barnyardgrass plant response rating: 70
[1]; [13]
  Plant response rating, Barnyardgrass: 100
Corn (Zea mays); [14]
  Plant response rating, Corn: 0
Corn (Zea mays); 500 g ai/ha
  Corn plant response rating: 0
[2]; [10]
  Plant response rating, Foxtail, Giant: 90
[2]; [11]
  Foxtail, Giant plant response rating: 100
[2]; [12]
  Foxtail, Giant plant response rating: 100
[2]; [13]
  Plant response rating, Foxtail, Giant: 100
Kochia (Kochia scoparia); [10]
  Plant response rating, Kochia: 70
Kochia (Kochia scoparia); [11]
  Kochia plant response rating: 100
Kochia (Kochia scoparia); [12]
  Kochia plant response rating: 30
Kochia (Kochia scoparia); [13]
  Plant response rating, Kochia: 100
[3]; [10]
  Plant response rating, Pigweed: 100
[3]; [11]
  Pigweed plant response rating: 100
[3]; [12]
  Pigweed plant response rating: 100
[3]; [13]
  Plant response rating, Pigweed: 100
[4]; [10]
  Plant response rating, Ragweed: 90
[4]; [11]
  Ragweed plant response rating: 100
[4]; [12]
  Ragweed plant response rating: 90
[4]; [13]
  Plant response rating, Ragweed: 100
[5]; [10]
  Plant response rating, Ryegrass, Italian: 90
[5]; [11]
  Ryegrass, Italian plant response rating: 100
[5]; [12]
  Ryegrass, Italian plant response rating: 100
[5]; [13]
  Plant response rating, Ryegrass, Italian: 100
[6]; [14]
  Plant response rating, Wheat: 0
[6]; 500 g ai/ha
  Wheat plant response rating: 20
[7]; [15]
  Barnyardgrass plant response rating: 25
[7]; [16]
  Plant response rating, Barnyardgrass: 30
[7]; [17]
  Plant response rating, Barnyardgrass: 45
[7]; [18]
  Plant response rating, Barnyardgrass: 50
[7]; [19]
  Plant response rating, Barnyardgrass: 70
[7]; [20]
  Plant response rating, Barnyardgrass: 85
[7]; [21]
  Barnyardgrass plant response rating: 90
[7]; [22]
  Barnyardgrass plant response rating: 25
[8]; [16]
  Plant response rating, Galium: 100
[8]; [17]
  Plant response rating, Galium: 100
[8]; [18]
  Plant response rating, Galium: 90
[8]; [19]
  Plant response rating, Galium: 90
[8]; [20]
  Plant response rating, Galium: 95
[8]; [21]
  Galium plant response rating: 95
[8]; [22]
  Galium plant response rating: 90
[9]; [16]
  Plant response rating, Velvetleaf: 90
[9]; [17]
  Plant response rating, Velvetleaf: 90
[9]; [18]
  Plant response rating, Velvetleaf: 35
[9]; [19]
  Plant response rating, Velvetleaf: 70
[9]; [20]
  Plant response rating, Velvetleaf: 85
[9]; [21]
  Velvetleaf plant response rating: 90
[9]; [22]
  Velvetleaf plant response rating: 90

## COc1nn(C)c(=O)c(-c2c(C)ccc3ccccc23)c1OC(=O)OC(C)C [Compound 36]
[1]; [23]
  Plant response rating, Barnyardgrass: 50
[1]; [11]
  Barnyardgrass plant response rating: 80
[1]; [12]
  Barnyardgrass plant response rating: 0
[1]; [24]
  Plant response rating, Barnyardgrass: 30
Corn (Zea mays); 125 g ai/ha, visual rating after approx. 10 d, 0 to 100 scale (0 no effect, 100 complete control)
  Plant response rating, Corn: 20
Corn (Zea mays); 500 g ai/ha
  Corn plant response rating: 40
[2]; [23]
  Plant response rating, Foxtail, Giant: 80
[2]; [11]
  Foxtail, Giant plant response rating: 90
[2]; [12]
  Foxtail, Giant plant response rating: 80
[2]; [24]
  Plant response rating, Foxtail, Giant: 90
Kochia (Kochia scoparia); [23]
  Plant response rating, Kochia: 90
Kochia (Kochia scoparia); [11]
  Kochia plant response rating: 100
Kochia (Kochia scoparia); [12]
  Kochia plant response rating: 10
Kochia (Kochia scoparia); [24]
  Plant response rating, Kochia: 80
[3]; [23]
  Plant response rating, Pigweed: 90
[3]; [11]
  Pigweed plant response rating: 90
[3]; [12]
  Pigweed plant response rating: 100
[3]; [24]
  Plant response rating, Pigweed: 100
[4]; [23]
  Plant response rating, Ragweed: 90
[4]; [11]
  Ragweed plant response rating: 90
[4]; [12]
  Ragweed plant response rating: 80
[4]; [24]
  Plant response rating, Ragweed: 90
[5]; [10]
  Plant response rating, Ryegrass, Italian: 70
[5]; [11]
  Ryegrass, Italian plant response rating: 80
[5]; [12]
  Ryegrass, Italian plant response rating: 70
[5]; [24]
  Plant response rating, Ryegrass, Italian: 70
[6]; [14]
  Plant response rating, Wheat: 20
[6]; 500 g ai/ha
  Wheat plant response rating: 30
[7]; [15]
  Barnyardgrass plant response rating: 15
[7]; [16]
  Plant response rating, Barnyardgrass: 35
[7]; [17]
  Plant response rating, Barnyardgrass: 40
[7]; [18]
  Plant response rating, Barnyardgrass: 10
[7]; [19]
  Plant response rating, Barnyardgrass: 25
[7]; [20]
  Plant response rating, Barnyardgrass: 65
[7]; [21]
  Barnyardgrass plant response rating: 70
[7]; [22]
  Barnyardgrass plant response rating: 25
[8]; [15]
  Galium plant response rating: 90
[8]; [16]
  Plant response rating, Galium: 95
[8]; [17]
  Plant response rating, Galium: 95
[8]; [18]
  Plant response rating, Galium: 100
[8]; [19]
  Plant response rating, Galium: 100
[8]; [20]
  Plant response rating, Galium: 100
[8]; [21]
  Galium plant response rating: 100
[8]; [22]
  Galium plant response rating: 95
[9]; [15]
  Velvetleaf plant response rating: 65
[9]; [16]
  Plant response rating, Velvetleaf: 95
[9]; [17]
  Plant response rating, Velvetleaf: 95
[9]; [18]
  Plant response rating, Velvetleaf: 55
[9]; [19]
  Plant response rating, Velvetleaf: 80
[9]; [20]
  Plant response rating, Velvetleaf: 85
[9]; [21]
  Velvetleaf plant response rating: 90
[9]; [22]
  Velvetleaf plant response rating: 85

## COC(=O)Oc1c(Br)nn(C)c(=O)c1-c1c(C)ccc2ccccc12 [Compound 137]
[1]; [10]
  Plant response rating, Barnyardgrass: 70
[1]; [25]
  Plant response rating, Barnyardgrass: 100
[1]; [12]
  Barnyardgrass plant response rating: 90
[1]; [13]
  Plant response rating, Barnyardgrass: 100
Corn (Zea mays); [14]
  Plant response rating, Corn: 30
Corn (Zea mays); [26]
  Plant response rating, Corn: 70
[2]; [10]
  Plant response rating, Foxtail, Giant: 100
[2]; [25]
  Plant response rating, Foxtail, Giant: 100
[2]; [12]
  Foxtail, Giant plant response rating: 90
[2]; [13]
  Plant response rating, Foxtail, Giant: 100
Kochia (Kochia scoparia); [10]
  Plant response rating, Kochia: 100
Kochia (Kochia scoparia); [25]
  Plant response rating, Kochia: 100
Kochia (Kochia scoparia); [12]
  Kochia plant response rating: 30
Kochia (Kochia scoparia); [13]
  Plant response rating, Kochia: 100
[3]; [10]
  Plant response rating, Pigweed: 100
[3]; [25]
  Plant response rating, Pigweed: 100
[3]; [12]
  Pigweed plant response rating: 100
[3]; [13]
  Plant response rating, Pigweed: 100
[4]; [10]
  Plant response rating, Ragweed: 100
[4]; [25]
  Plant response rating, Ragweed: 100
[4]; [12]
  Ragweed plant response rating: 90
[4]; [13]
  Plant response rating, Ragweed: 100
[5]; [10]
  Plant response rating, Ryegrass, Italian: 100
[5]; [25]
  Plant response rating, Ryegrass, Italian: 100
[5]; [12]
  Ryegrass, Italian plant response rating: 100
[5]; [13]
  Plant response rating, Ryegrass, Italian: 100
[6]; [14]
  Plant response rating, Wheat: 50
[6]; [26]
  Plant response rating, Wheat: 90
[7]; [27]
  Plant response rating, Barnyardgrass: 25
[7]; [28]
  Barnyardgrass plant response rating: 40
[7]; [16]
  Plant response rating, Barnyardgrass: 50
[7]; [17]
  Plant response rating, Barnyardgrass: 65
[7]; [18]
  Plant response rating, Barnyardgrass: 35
[7]; [19]
  Plant response rating, Barnyardgrass: 85
[7]; [20]
  Plant response rating, Barnyardgrass: 90
[7]; [21]
  Barnyardgrass plant response rating: 100
[8]; [27]
  Plant response rating, Galium: 85
[8]; [28]
  Galium plant response rating: 90
[8]; [17]
  Plant response rating, Galium: 95
[8]; [18]
  Plant response rating, Galium: 98
[8]; [19]
  Plant response rating, Galium: 98
[8]; [20]
  Plant response rating, Galium: 98
[8]; [21]
  Galium plant response rating: 100
[8]; [29]
  Galium plant response rating: 90
[9]; [27]
  Plant response rating, Velvetleaf: 85
[9]; [28]
  Velvetleaf plant response rating: 90
[9]; [17]
  Plant response rating, Velvetleaf: 95
[9]; [18]
  Plant response rating, Velvetleaf: 80
[9]; [19]
  Plant response rating, Velvetleaf: 100
[9]; [20]
  Plant response rating, Velvetleaf: 100
[9]; [21]
  Velvetleaf plant response rating: 100
[9]; [29]
  Velvetleaf plant response rating: 90
